Test results taken from ChEMBL document CHEMBL1201862, “PubChem BioAssay data set” (2004).
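Briefly, cells in 96-well plates were exposed to five compound concentrations for 48 h, and endpoints were estimated by linear interpolation. GI50 = concentration required for 50% inhibition of growth.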 Activity calls are given as the source filed them. Cut-off read from the data, not from the text of the source: active = GI50 up to about 1.1 µM and inactive = higher.

How the values were obtained:
Assay in all cases: NCI-60 cell line screen, 48 h
[1] = tested on: SW-620
[2] = tested on: SR
[3] = tested on: OVCAR-8
[4] = tested on: OVCAR-5
[5] = tested on: ACHN
[6] = tested on: NCI/ADR-RES
[7] = tested on: U-251
[8] = tested on: HCT-15
[9] = tested on: SK-MEL-2
[10] = tested on: M14
[11] = tested on: UO-31
[12] = tested on: MDA-MB-231
[13] = tested on: TK-10
[14] = tested on: HCT-116
[15] = tested on: EKVX
[16] = tested on: NCI-H522
[17] = tested on: SN12C
[18] = tested on: CCRF-CEM
[19] = tested on: Malme-3M
[20] = tested on: HCC 2998

O=c1c(O)c(-c2cc(O)c(O)cc2O)oc2cc(O)c(C3OC(CO)C(O)C(O)C3O)c(O)c12 (stereo not given) was tested, and the GI50 [1] was > 100 µM (inactive), the GI50 [2] was > 100 µM (inactive) and the GI50 [3] was > 100 µM (inactive). The GI50 [4] was > 100 µM (inactive), the GI50 [5] was > 100 µM (inactive) and the GI50 [6] was > 100 µM (inactive). For the same molecule, the GI50 [7] was > 100 µM (inactive), the GI50 [8] was greater than 100 µM and the GI50 [9] was > 100 µM (inactive). For the same molecule, the GI50 [10] was > 100 µM (inactive), the GI50 [11] was > 100 µM (inactive) and the GI50 [12] was > 100 µM (inactive). The GI50 [13] was > 100 µM (inactive), the GI50 [14] was > 100 µM (inactive) and the GI50 [15] was > 100 µM (inactive). The GI50 [16] was > 100 µM (inactive) and the GI50 [17] was > 100 µM (inactive).
In the case of O=C(CCN1CCCCC1)C(=Cc1ccccc1)C(=O)CCN1CCCCC1, the GI50 [1] is reported as 29.7 µM (inactive), the GI50 [2] is reported as 4.36 µM (inactive) and the GI50 [3] is reported as 25.1 µM (inactive). For the same molecule, the GI50 [4] was > 100 µM (inactive), the GI50 [5] was 9.73 µM (inactive) and the GI50 [6] was 74.5 µM (inactive). For the same molecule, the GI50 [18] was 17.2 µM (inactive), the GI50 [7] was > 100 µM (inactive) and the GI50 [8] was 64.9 µM. For the same molecule, the GI50 [9] was > 100 µM (inactive), the GI50 [10] was 5.18 µM (inactive) and the GI50 [11] was > 100 µM (inactive). The GI50 [19] was > 10 µM (inactive), the GI50 [14] was 42.3 µM (inactive) and the GI50 [20] was > 100 µM (inactive). For the same molecule, the GI50 [15] was > 100 µM (inactive), the GI50 [16] was 1.23 µM (inactive) and the GI50 [17] was > 74.8 µM (inactive).
For Cc1ccc(C)n1-c1ccccc1C1C=CN(C(=O)OC(C)(C)C)C=C1, the GI50 [1] was 19.2 µM (inactive), the GI50 [3] was 32.7 µM (inactive) and the GI50 [4] was 29.6 µM (inactive). The GI50 [5] was 32.6 µM (inactive), the GI50 [6] was 27.6 µM (inactive) and the GI50 [18] was 35.3 µM (inactive). The GI50 [7] was 26.3 µM (inactive), the GI50 [8] was 20.6 µM and the GI50 [9] was 16.9 µM (inactive). For the same molecule, the GI50 [10] was 28.8 µM (inactive), the GI50 [11] was 33.1 µM (inactive) and the GI50 [12] was 19.7 µM (inactive). For the same molecule, the GI50 [19] was 15.7 µM (inactive), the GI50 [13] was 67.3 µM (inactive) and the GI50 [14] was 15 µM (inactive). For the same molecule, the GI50 [20] was 17.3 µM (inactive), the GI50 [15] was 16.4 µM (inactive) and the GI50 [16] was 16.6 µM (inactive). The GI50 [17] was 33.6 µM (inactive).
In the case of Fc1ccc(Oc2nc3ccccc3nc2-c2ccccc2)cc1, the GI50 [1] is reported as > 100 µM (inactive), the GI50 [2] is reported as 44.6 µM (inactive) and the GI50 [4] is reported as > 100 µM (inactive). The GI50 [5] was > 100 µM (inactive), the GI50 [18] was > 100 µM (inactive) and the GI50 [7] was 50.5 µM (inactive). The GI50 [8] was greater than 100 µM, the GI50 [9] was > 100 µM (inactive) and the GI50 [11] was > 100 µM (inactive). For the same molecule, the GI50 [12] was > 100 µM (inactive), the GI50 [19] was > 100 µM (inactive) and the GI50 [13] was > 100 µM (inactive). The GI50 [14] was > 100 µM (inactive), the GI50 [20] was > 100 µM (inactive) and the GI50 [15] was > 100 µM (inactive). For the same molecule, the GI50 [16] was 71.8 µM (inactive) and the GI50 [17] was > 100 µM (inactive).
In the case of CC1CC(=O)Nc2ccccc2N1C(=O)C1CC1 (stereo not given), the GI50 [1] is reported as > 100 µM (inactive), the GI50 [3] is reported as > 100 µM (inactive) and the GI50 [4] is reported as > 100 µM (inactive). For the same molecule, the GI50 [5] was > 100 µM (inactive), the GI50 [18] was > 100 µM (inactive) and the GI50 [7] was > 100 µM (inactive). For the same molecule, the GI50 [8] was greater than 100 µM, the GI50 [9] was > 100 µM (inactive) and the GI50 [10] was > 100 µM (inactive). For the same molecule, the GI50 [11] was > 100 µM (inactive), the GI50 [12] was > 100 µM (inactive) and the GI50 [19] was > 100 µM (inactive). The GI50 [13] was > 100 µM (inactive), the GI50 [14] was > 100 µM (inactive) and the GI50 [20] was > 100 µM (inactive). For the same molecule, the GI50 [15] was > 100 µM (inactive), the GI50 [16] was > 100 µM (inactive) and the GI50 [17] was > 100 µM (inactive).
For N#CC(c1nc2ccccc2s1)c1nc(Cl)ncc1Br (stereo not given), the GI50 [1] was 42.6 µM (inactive), the GI50 [3] was 30.4 µM (inactive) and the GI50 [4] was > 100 µM (inactive). The GI50 [5] was 28.2 µM (inactive), the GI50 [6] was 30 µM (inactive) and the GI50 [7] was 29.4 µM (inactive). The GI50 [8] was 29.1 µM, the GI50 [10] was 44.6 µM (inactive) and the GI50 [11] was 36.7 µM (inactive). The GI50 [12] was 39.2 µM (inactive), the GI50 [19] was 41.4 µM (inactive) and the GI50 [13] was 37.3 µM (inactive). For the same molecule, the GI50 [14] was 23 µM (inactive), the GI50 [15] was 41.8 µM (inactive) and the GI50 [16] was 20.7 µM (inactive). The GI50 [17] was 30.6 µM (inactive).
